In paper PMC5540273, “Progress towards a public chemogenomic set for protein kinases and a call for contributions” (PLoS ONE, 2017):

Assays:
Assay in all cases: KINOMEscan competition binding
[1] = molecular target: CAMK1 (Homo sapiens, UniProt Q14012); conditions: read-out: %Inh CAMK1
[2] = molecular target: CAMKK1 (Homo sapiens, UniProt Q8N5S9); conditions: read-out: %Inh CAMKK1
[3] = molecular target: JAK2(JH1domain-catalytic) (Homo sapiens, UniProt O60674); conditions: read-out: %Inh JAK2(JH1domain-catalytic)
JAK2(JH1domain-catalytic), sequence (O60674 840-1132 limits assumed): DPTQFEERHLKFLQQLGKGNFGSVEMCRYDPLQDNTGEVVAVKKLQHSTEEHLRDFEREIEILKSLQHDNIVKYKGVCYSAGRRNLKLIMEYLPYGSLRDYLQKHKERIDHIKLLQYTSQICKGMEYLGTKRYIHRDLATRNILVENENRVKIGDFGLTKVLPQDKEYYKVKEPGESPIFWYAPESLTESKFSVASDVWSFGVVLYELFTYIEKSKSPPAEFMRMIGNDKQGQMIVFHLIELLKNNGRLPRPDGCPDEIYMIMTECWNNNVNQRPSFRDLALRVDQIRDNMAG

[4] = molecular target: T1, ACVR1 (Homo sapiens, UniProt Q04771); conditions: read-out: %Inh ACVR1
T1 sequence (Q04771 21-509): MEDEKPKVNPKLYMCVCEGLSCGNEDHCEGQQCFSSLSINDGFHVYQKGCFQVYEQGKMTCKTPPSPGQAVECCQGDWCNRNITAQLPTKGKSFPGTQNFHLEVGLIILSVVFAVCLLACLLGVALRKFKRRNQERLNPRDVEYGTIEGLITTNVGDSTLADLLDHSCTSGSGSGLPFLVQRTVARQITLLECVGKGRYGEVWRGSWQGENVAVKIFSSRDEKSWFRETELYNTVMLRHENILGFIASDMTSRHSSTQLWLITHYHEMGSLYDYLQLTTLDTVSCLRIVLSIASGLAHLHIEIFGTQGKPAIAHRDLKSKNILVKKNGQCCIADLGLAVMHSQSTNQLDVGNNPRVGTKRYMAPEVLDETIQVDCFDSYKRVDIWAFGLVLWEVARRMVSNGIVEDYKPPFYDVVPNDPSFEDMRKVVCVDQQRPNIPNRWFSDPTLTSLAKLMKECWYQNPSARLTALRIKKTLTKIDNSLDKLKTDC

[5] = molecular target: BTK (Homo sapiens, UniProt Q06187); conditions: read-out: %Inh BTK
BTK, sequence (Q06187 whole entry): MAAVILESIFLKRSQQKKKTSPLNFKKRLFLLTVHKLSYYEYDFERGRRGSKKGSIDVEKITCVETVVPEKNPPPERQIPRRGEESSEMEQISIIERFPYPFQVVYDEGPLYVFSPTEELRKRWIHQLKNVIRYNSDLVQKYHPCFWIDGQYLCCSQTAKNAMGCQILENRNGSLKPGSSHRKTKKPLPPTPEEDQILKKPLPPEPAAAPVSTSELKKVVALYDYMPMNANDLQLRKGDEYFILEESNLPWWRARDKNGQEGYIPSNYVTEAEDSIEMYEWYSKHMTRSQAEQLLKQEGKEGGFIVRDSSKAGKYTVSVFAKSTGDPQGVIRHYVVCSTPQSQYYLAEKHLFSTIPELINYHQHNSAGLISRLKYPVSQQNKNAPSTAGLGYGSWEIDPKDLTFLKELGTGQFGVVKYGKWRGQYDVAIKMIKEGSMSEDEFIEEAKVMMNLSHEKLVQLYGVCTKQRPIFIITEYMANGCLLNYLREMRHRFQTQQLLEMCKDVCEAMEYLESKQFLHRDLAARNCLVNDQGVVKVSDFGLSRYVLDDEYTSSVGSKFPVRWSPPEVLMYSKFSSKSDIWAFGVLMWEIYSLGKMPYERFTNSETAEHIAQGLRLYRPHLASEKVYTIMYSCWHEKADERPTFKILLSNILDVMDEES

[6] = molecular target: CAMKK2 (Homo sapiens, UniProt Q96RR4); conditions: read-out: %Inh CAMKK2
CAMKK2, sequence (Q96RR4 whole entry): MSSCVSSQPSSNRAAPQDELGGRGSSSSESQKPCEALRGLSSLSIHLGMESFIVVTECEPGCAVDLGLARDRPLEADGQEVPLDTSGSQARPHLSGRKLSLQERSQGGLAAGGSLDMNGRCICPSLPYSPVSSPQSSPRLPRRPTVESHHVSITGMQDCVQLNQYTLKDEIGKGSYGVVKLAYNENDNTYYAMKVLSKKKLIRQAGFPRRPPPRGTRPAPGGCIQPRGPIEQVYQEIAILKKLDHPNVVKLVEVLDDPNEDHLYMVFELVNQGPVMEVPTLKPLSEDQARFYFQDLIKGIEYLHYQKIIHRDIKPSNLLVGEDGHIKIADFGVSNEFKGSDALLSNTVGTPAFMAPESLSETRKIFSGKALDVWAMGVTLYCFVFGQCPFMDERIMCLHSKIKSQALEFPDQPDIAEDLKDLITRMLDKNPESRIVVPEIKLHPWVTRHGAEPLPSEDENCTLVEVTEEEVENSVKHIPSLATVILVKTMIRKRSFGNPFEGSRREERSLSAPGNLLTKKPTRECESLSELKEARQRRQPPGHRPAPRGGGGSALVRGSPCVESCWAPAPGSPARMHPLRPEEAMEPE

[7] = molecular target: CDK9 (Homo sapiens, UniProt P50750); conditions: read-out: %Inh CDK9
CDK9, sequence (P50750 whole entry): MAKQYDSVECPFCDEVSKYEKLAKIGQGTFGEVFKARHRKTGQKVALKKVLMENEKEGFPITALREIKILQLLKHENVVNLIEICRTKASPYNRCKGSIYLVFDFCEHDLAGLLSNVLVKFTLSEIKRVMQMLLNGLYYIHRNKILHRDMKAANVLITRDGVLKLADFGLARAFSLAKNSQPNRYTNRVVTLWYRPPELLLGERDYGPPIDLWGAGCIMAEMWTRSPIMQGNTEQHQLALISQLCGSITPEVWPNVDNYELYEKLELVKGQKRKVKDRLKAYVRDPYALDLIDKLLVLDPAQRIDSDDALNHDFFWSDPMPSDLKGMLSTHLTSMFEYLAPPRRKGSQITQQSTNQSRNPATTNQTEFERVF

[8] = molecular target: T2, AXL (Homo sapiens, UniProt P30530); conditions: read-out: %Inh AXL
T2 sequence (P30530 26-894): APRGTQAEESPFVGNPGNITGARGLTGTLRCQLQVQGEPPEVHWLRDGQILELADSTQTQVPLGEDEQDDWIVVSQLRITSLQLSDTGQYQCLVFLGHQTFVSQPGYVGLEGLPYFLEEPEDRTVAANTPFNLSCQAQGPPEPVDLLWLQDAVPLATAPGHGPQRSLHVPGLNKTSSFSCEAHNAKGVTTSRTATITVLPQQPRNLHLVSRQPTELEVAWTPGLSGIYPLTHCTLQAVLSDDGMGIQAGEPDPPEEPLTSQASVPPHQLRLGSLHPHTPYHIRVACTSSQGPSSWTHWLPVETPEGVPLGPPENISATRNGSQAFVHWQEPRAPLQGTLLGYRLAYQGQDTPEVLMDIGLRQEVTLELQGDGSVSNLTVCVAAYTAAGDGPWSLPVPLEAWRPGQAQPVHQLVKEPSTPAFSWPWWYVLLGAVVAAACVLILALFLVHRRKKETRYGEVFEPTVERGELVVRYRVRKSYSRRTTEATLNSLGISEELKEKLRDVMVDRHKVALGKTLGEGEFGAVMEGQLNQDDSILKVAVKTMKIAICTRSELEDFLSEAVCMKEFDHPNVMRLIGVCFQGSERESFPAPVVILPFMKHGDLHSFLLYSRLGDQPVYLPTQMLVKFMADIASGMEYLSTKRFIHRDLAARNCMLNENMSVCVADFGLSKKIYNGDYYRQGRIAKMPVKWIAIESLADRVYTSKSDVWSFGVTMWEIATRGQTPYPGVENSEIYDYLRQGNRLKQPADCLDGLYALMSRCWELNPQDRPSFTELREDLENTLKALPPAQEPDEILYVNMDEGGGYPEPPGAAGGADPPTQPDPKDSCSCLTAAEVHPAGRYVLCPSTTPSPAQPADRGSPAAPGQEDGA

[9] = molecular target: T3, ITK (Homo sapiens, UniProt Q08881); conditions: read-out: %Inh ITK
T3 sequence (Q08881 1-620): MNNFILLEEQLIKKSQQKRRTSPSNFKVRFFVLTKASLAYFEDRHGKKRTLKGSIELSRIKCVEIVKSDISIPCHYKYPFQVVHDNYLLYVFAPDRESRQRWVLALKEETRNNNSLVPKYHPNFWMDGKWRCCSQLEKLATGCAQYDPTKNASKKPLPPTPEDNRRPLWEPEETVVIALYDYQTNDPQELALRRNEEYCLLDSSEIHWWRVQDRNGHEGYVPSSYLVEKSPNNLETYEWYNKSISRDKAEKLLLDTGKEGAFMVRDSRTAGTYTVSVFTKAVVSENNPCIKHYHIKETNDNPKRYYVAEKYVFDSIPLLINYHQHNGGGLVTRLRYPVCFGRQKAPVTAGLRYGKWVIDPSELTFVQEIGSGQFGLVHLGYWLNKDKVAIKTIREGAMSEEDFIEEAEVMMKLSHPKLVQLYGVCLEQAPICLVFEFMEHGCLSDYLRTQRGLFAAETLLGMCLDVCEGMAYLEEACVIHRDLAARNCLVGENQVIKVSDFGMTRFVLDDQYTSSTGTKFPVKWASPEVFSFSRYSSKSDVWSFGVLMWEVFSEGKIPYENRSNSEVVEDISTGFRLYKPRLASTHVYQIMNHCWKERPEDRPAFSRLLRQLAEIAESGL

[10] = molecular target: ALK (Homo sapiens, UniProt Q9UM73); conditions: read-out: %Inh ALK
ALK, sequence (Q9UM73 19-1620): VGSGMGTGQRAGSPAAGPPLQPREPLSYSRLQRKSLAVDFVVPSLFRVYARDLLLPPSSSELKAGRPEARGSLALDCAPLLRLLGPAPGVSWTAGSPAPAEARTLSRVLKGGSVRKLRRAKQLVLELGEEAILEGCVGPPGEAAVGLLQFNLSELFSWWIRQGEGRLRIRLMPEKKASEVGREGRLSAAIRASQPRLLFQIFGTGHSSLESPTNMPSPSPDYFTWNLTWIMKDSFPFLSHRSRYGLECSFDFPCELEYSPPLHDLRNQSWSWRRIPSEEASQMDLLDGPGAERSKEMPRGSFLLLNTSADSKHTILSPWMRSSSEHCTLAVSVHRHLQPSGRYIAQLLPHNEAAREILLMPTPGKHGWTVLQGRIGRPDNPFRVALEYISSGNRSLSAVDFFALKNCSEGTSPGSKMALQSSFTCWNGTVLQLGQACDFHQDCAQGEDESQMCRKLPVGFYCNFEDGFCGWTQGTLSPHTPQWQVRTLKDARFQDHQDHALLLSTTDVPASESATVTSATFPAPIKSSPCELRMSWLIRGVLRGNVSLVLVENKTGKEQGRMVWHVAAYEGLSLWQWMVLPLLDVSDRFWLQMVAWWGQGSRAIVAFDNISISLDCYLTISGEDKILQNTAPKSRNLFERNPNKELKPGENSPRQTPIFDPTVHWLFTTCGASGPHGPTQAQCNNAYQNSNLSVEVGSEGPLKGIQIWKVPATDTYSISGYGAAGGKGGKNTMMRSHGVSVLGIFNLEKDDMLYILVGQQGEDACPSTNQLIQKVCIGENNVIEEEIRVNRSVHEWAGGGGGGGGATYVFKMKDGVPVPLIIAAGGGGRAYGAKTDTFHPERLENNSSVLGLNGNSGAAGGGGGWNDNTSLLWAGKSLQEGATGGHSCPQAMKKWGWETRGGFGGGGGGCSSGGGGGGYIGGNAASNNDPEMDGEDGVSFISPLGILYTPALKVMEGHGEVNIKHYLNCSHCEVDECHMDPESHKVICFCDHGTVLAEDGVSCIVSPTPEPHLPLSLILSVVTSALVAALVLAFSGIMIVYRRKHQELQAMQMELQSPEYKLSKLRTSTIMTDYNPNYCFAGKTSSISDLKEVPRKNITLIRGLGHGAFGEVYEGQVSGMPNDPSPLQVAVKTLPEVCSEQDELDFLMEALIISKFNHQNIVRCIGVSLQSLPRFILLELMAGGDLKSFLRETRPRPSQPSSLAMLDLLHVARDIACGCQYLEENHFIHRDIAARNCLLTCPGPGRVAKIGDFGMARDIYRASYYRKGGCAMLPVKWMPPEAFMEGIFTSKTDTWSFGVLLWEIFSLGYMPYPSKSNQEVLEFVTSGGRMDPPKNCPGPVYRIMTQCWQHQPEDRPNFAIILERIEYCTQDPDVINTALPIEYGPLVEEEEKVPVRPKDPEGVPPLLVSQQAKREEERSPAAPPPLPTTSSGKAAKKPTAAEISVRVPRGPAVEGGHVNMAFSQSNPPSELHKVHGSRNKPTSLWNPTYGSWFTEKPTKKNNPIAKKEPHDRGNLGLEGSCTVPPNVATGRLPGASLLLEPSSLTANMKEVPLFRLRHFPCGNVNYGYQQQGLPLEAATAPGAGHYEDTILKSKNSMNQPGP

[11] = molecular target: LIMK2 (Homo sapiens, UniProt P53671); conditions: read-out: %Inh LIMK2
LIMK2, sequence (P53671 whole entry): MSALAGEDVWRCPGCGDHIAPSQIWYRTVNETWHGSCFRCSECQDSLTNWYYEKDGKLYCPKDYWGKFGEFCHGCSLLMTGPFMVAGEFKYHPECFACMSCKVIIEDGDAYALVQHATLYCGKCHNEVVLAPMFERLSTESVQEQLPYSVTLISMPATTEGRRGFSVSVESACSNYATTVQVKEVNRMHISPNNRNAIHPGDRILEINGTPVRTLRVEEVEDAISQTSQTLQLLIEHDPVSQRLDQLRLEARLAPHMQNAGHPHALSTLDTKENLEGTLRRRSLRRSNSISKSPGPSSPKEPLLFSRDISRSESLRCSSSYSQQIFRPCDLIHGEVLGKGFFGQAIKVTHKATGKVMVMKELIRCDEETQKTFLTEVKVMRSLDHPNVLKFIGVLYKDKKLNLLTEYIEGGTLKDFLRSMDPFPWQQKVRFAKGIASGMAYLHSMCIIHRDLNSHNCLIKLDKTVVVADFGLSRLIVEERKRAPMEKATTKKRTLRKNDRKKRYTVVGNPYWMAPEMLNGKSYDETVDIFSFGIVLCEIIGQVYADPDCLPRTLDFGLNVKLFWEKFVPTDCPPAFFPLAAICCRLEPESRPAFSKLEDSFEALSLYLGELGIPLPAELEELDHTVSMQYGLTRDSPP

CAMKK1, sequence (Q8N5S9 whole entry): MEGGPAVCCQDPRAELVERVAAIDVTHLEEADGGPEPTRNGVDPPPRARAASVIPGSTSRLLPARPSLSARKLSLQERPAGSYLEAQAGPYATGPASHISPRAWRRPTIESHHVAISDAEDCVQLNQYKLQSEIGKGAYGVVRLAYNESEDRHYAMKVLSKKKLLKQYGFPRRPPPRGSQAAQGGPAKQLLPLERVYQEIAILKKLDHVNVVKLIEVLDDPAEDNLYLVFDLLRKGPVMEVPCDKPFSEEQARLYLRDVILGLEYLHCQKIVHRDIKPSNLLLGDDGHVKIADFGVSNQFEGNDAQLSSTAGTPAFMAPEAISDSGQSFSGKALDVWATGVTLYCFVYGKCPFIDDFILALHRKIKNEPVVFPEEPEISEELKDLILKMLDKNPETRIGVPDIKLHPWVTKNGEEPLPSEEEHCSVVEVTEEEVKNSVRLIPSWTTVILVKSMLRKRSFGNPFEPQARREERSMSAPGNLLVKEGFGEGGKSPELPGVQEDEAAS
CAMK1, sequence (Q14012 whole entry): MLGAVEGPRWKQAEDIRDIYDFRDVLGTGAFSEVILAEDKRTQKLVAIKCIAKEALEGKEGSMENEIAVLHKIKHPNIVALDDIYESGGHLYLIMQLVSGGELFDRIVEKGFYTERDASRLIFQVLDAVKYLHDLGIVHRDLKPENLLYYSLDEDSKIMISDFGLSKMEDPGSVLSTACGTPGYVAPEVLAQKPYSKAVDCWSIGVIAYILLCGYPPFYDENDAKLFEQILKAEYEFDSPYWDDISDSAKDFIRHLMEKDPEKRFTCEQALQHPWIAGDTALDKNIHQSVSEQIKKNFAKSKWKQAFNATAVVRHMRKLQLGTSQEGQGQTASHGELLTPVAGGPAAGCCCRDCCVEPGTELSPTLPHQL

Compound | inhibition at 1 µM [1] [%] | inhibition at 1 µM [2] [%] | inhibition at 1 µM [3] [%] | inhibition at 1 µM [4] [%] | inhibition at 1 µM [5] [%] | inhibition at 1 µM [6] [%] | inhibition at 1 µM [7] [%] | inhibition at 1 µM [8] [%] | inhibition at 1 µM [9] [%] | inhibition at 1 µM [10] [%] | inhibition at 1 µM [11] [%]
Cn1cc(-c2cnc(N)c3c(-c4ccc5c(c4)CCN5C(=O)Cc4ccccc4)csc23)cn1 [UNC10225012A] | 0 | 11 | 26 | 7 | 0 | 19 | 0 | 95.9 | 23 | 0 | 55
CS(=O)(=O)Cc1ccc(Nc2nccc(-c3c(-c4cccc(NC(=O)C5CCCCC5)c4)nn4ncccc34)n2)cc1 [UNC10225159A] | 0 | 0 | 16 | 18 | 0 | 0 | 0 | 18 | 6 | 29 | 14
Cc1ccc(NC(=O)Nc2cccc(C(F)(F)F)c2)cc1 [UNC10225187A] | 7 | 9 | 0 | 10 | 0 | 19 | 0 | 0 | 12 | 0 | 10
COc1cccc(OC)c1C(=O)Nc1cccc(-c2nn3ccccc3c2-c2ccnc(Nc3cccc(F)c3)n2)c1 [UNC10225310A] | 19 | 4 | 3 | 17 | 0 | 0 | 0 | 30 | 93.8 | 0 | 15
O=c1cc(N2CCOCC2)nc2n(Cc3cccc(Cl)c3Cl)c(C3CC3)nn12 [UNC10225469A] | 0 | 3 | 6 | 0 | 0 | 8 | 0 | 3 | 4 | 0 | 8
